According to patent publication EP3505512B1, “QUATERNARY NICOTINAMIDE DERVIATIVES AS PRECURSORS FOR RELEASE OF MNA” (UNIWERSYTET JAGIELLONSKI, priority 2017, dated 2019):

Experiment: hydrolytic stability in solution: incubation in PBS buffer, LC-MS/MS determination of parent compound, MNAF and MNA
Assay type: physicochemical
Details: PBS buffer, 37°C, incubation 120 min
Description: The invention also concerns the method of releasing N1-methylnicotinamide (MNA), which is characterized by the following steps: pyridine salts derivatives, as defined above, are incubated in a shaking water bath at 37°C for 120 minutes, then samples are taken 1, 5, 15, 30, 60, 90 and 120 minutes after the start of incubation, by taking 50 µL of a sample to which 500 µL of acetonitrile cooled to -20°C was added to interrupt the hydrolysis reaction, then samples were cooled for 20 minutes at 4°C for protein precipitation, and then centrifuged under the following conditions: 4°C, 15,000 x rpm, 15 min, and the supernatant was transferred to separate chromatographic tubes and 5 µL was applied to the chromatographic column. Preferably, when MNA release is studied in PBS buffer - testing hydrolytic stability in solution and/or in rat plasma - additionally testing plasma esterase-dependent hydrolysis.
(§1) For that purpose, the studied compounds were incubated: (1) in PBS buffer - testing hydrolytic stability in solution; (2) in rat plasma - testing additionally esterase dependent hydrolysis. Incubation was carried out in a shaking water bath at 37°C. The studied compounds were added to the prepared biological matrix and incubated for 120 min. Samples were collected 1, 5, 15, 30, 60, 90 and 120 min. after the beginning of incubation, by taking 50 µL of a sample to which 500 µL of acetonitrile cooled to -20°C was added to stop the hydrolysis reaction. The samples were cooled for 20 minutes at 4°C in order to precipitate proteins and then centrifuged under the following conditions: 4°C, 15,000 x rpm, 15 min. The supernatant was transferred to separate chromatographic tubes and 5 µL was injected onto chromatographic column.
The analytical system used for determination of MNA and MNAF concentrations consisted of the UltiMate 3000 liquid chromatograph (Dionex, Thermo Scientific) and the Quantum Ultra TSQ mass spectrometer (Thermo Scientific). For chromatographic separation the Aquasil C18 (4.6 x 150 mm, 5 µm, Thermo Scientific) analytical column was used with isocratic mobile phase, a mixture of 0.1% formic acid in acetonitrile and 5mM ammonium formate (80: 20, v/v)) elution ,at the flow rate of 0,8 mL/min. The detection was performed in the selected reaction monitoring (SRM) mode in positive ionization, monitoring the following ion transitions: m/z 137 → 94 (CE=19V) for MNA, m/z 167 → 137 (CE10) for MNAF, m/z 140 → 97 (CE=19V) for MNA-d3 used as internal standard. The parameters of the ion source were as follows: gas pressure 30 psi (sheath gas) and 10 psi (auxiliary gas), ion spray voltage 4500V, H-ESI ison sourse vaporizer temperature 300°C, capillary temperature 300°C, pressure in the collision chamber 1.5 mTorr (argon).
With “3-(methoxymethylcarbamoyl)-1-methylpyridinium iodide [C-2823]” the “stability in PBS buffer” value was “high stability”. In the case of “3-[(adamanthan-1-carbonyl oxymethyl)carbamoyl]-1-methylpyridinium iodide [C-2808]”, the “stability in PBS buffer” value is reported as “high stability”.

Same assay, conditions: PBS solution, 37°C, incubation 120 min
In the case of “3-(methoxymethylcarbamoyl)-1-methylpyridinium iodide [C-2823]”, the “changes in concentrations of parent compound during incubation in PBS solution” value is reported as “No changes in concentrations”. In the case of “3-[(adamanthan-1-carbonyl oxymethyl)carbamoyl]-1-methylpyridinium iodide [C-2808]”, the “changes in concentrations of parent compound during incubation in PBS solution” value is reported as “No changes in concentrations”.

Experiment: esterase dependent hydrolysis: incubation in fresh rat plasma, LC-MS/MS determination of parent compound, MNAF and MNA
Details: fresh rat plasma, 37°C, incubation 120 min
Description: Preferably, when MNA release is studied in PBS buffer - testing hydrolytic stability in solution and/or in rat plasma - additionally testing plasma esterase-dependent hydrolysis.
as §1
The analytical system used for determination of MNA and MNAF concentrations consisted of the UltiMate 3000 liquid chromatograph (Dionex, Thermo Scientific) and the Quantum Ultra TSQ mass spectrometer (Thermo Scientific). For chromatographic separation the Aquasil C18 (4.6 x 150 mm, 5 µm, Thermo Scientific) analytical column was used with isocratic mobile phase, a mixture of 0.1% formic acid in acetonitrile and 5mM ammonium formate (80: 20, v/v)) elution ,at the flow rate of 0,8 mL/min. […] The parameters of the ion source were as follows: gas pressure 30 psi (sheath gas) and 10 psi (auxiliary gas), ion spray voltage 4500V, H-ESI ison sourse vaporizer temperature 300°C, capillary temperature 300°C, pressure in the collision chamber 1.5 mTorr (argon).
With “3-(methoxymethylcarbamoyl)-1-methylpyridinium iodide [C-2823]” the “hydrolysis of parent compound during plasma incubation” value was “slow and slight hydrolysis”. With “3-[(adamanthan-1-carbonyl oxymethyl)carbamoyl]-1-methylpyridinium iodide [C-2808]” the “hydrolysis of parent compound during plasma incubation” value was “slow and slight hydrolysis”.

Same assay, conditions: group property; matrix not given
With “3-({[(3,4,5-trimethoxybenzoyl)oxy]methyl}carbamoyl)-1 methylpyridinium iodide [C-2942]” the “release of intermediate compound MNAF / rate of hydrolysis (property depending on structure)” value was “quick release of an intermediate compound MNAF”. With “3-(methoxymethylcarbamoyl)-1-methylpyridinium iodide [C-2823]” the “release of intermediate compound MNAF / rate of hydrolysis (property depending on structure)” value was “hydrolyse very slowly”. With “3-(isobutanoyloxymethylcarbamoyl)-1-methylpyridinium iodide [C-2649]” the “release of intermediate compound MNAF / rate of hydrolysis (property depending on structure)” value was “quick release of an intermediate compound MNAF”. For “iodide [(1-methylpyridine-1-ium-3-carbonyl)amino] methyl-1-methylcyclohexanecarboxylate [C-2959]”, the “release of intermediate compound MNAF / rate of hydrolysis (property depending on structure)” value was “quick release of an intermediate compound MNAF”. For “3-(benzoyloxymethylcarbamoyl)-1-methylpyridinium iodide [C-2648]”, the “release of intermediate compound MNAF / rate of hydrolysis (property depending on structure)” value was “quick release of an intermediate compound MNAF”. In the case of “3-[(2,2-dimethylpropionyl oxymethyl)carbamoyl]-1-methylpyridinium iodide [C-2647]”, the “release of intermediate compound MNAF / rate of hydrolysis (property depending on structure)” value is reported as “quick release of an intermediate compound MNAF”. For “3-[(adamanthan-1-carbonyl oxymethyl)carbamoyl]-1-methylpyridinium iodide [C-2808]”, the “release of intermediate compound MNAF / rate of hydrolysis (property depending on structure)” value was “hydrolyse very slowly”. In the case of “3-(Acetoxymethylcarbamoyl)-1-methylpyridinium iodide [C-2578]”, the “release of intermediate compound MNAF / rate of hydrolysis (property depending on structure)” value is reported as “quick release of an intermediate compound MNAF”.
